The target of one test is T1, dog ETB receptor (Canis lupus familiaris, UniProt P56497).
T1 construct: expressed in transfected cells
T1 sequence (P56497 27-442): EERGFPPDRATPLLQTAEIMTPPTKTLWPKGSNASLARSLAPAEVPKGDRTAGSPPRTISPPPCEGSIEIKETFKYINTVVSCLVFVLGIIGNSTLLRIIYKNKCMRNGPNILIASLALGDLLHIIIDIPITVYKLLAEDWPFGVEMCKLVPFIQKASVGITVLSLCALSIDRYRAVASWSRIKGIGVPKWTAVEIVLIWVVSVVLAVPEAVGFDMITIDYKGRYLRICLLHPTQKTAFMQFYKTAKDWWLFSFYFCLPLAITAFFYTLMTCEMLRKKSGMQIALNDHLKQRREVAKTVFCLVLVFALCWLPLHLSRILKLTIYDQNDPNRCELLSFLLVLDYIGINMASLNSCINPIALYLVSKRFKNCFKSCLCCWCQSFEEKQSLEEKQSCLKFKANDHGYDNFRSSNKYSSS
The test is described as follows: Determination of EC50s of polypeptides against dog ETB receptor. It counts as cell-based. The note with it: Table 7, dog ETB receptor; for EC50: read-out: DETAR Agonist Activity EC50. As for the experimental part:
293T-17 cells were seeded at a density of 650,000 cells per well in a 6-well plate and cultured overnight in an incubator at 37°C and 5% CO2. Afterward, the cells were transfected with an expression vector, PCDNA3.1-hETB which contained a human ETB receptor gene, at a plasmid concentration of 2.5 µg per well. The cells were further cultured for 48 hours, and green fluorescence expression was observed under a fluorescence microscope. The cells were then digested with trypsin and counted. The activity of compounds on the human ETB receptor was determined with the IP-One Gq kit from Cisbio Bioassays. The cells were suspended in Stim Buffer provided in the kit and the cell suspension was added to a 96-well detection plate at 7 µL cell suspension (containing 30,000 cells) per well. The polypeptides to be tested (prepared according to the Preparation Example of the invention) were diluted in Stim B to obtain a gradient of 11 concentration points. For each concentration point, the polypeptides to be tested were dissolved in Stim B to be at a concentration of 2×, and added at 7 µL to the test cells, while 7 µL of PBS solution was added to the cells in the negative control wells. The plate was sealed and incubated at 37°C for 1 hour in a cell culture incubator. Detection wells, positive control wells containing human endothelin ET1 (ET1: […] (C1-C15,C3-C11)), and PBS control wells were each added with 3 µL of IP1 d2 working solution and 3 µL of IP1 Tb cryptotate Antibody working solution. The plate was then sealed and incubated in the dark at room temperature (25°C±5°C) for 1 hour. The plate seal was removed, and the […] at 665 nm and 620 nm was measured with an ID5 microplate reader. The ratio of the acceptor emission signal to the donor emission signal, i.e., (signal at 665 nm/signal at 620 nm)×10^4, was calculated for each well. With F representing the average value of values of signal at 665 nm/signal at 620 nm for the test samples at various concentrations, a scatterplot was plotted, where the abscissa represented the F value, and the ordinate represented the logarithmic value of the peptide concentration. A curve was fitted with an appropriate method to calculate EC50 values of the polypeptides against the human ETB receptor. Another method was provided for fitting a curve where activation rate of the test polypeptides at each concentration relative to the positive control sample human endothelin ET1 was calculated first with the method in Example 1, and a scatterplot was plotted, where the abscissa represented the activation rate, and the ordinate represented the logarithmic value of the polypeptide concentration. A curve was fitted with an appropriate method to calculate the EC50 values of the polypeptides against the human ETB receptor.
The process is the same as that in Example 3, except that the transfected plasmid was expression vector PCDNA3.1-DETB which contained a dog ETB receptor gene. EC50 values of the polypeptide against the dog ETB receptor were calculated (see Figures 8-10). The sequence of the dog endothelin receptor B (NCBI accession number: NM_001010943.2).

Another test relates to rat model of pMACO. The test is described as follows: Garcia JH scoring in rat model of pMACO. It counts as in vivo, SD rats. Further details: 5 min Spontaneous Activity / Body Symmetry / Forelimb Extension Movement / Cage Climbing / Body Tactile Response on Both Sides / Beard Touch Reaction on Both Sides / Total Score: scale not given here. The note with it: for 5 min Spontaneous Activity / Beard Touch Reaction on Both Sides / Body Symmetry / Body Tactile Response on Both Sides / Cage Climbing / Forelimb Extension Movement / Total Score: Garcia JH score. From the text: Male SD rats, weighing 280-300 g, were used and acclimatized for at least 3 days. Focal cerebral ischemia was induced by middle cerebral artery occlusion with a suture method under isoflurane anesthesia. The animals were placed in a supine position, a midline incision was made, and the right common carotid artery, external carotid artery, and internal carotid artery were exposed. A 4.0 monofilament nylon suture was advanced from the external carotid artery toward the internal carotid artery lumen until resistance was felt (~20 mm), indicating middle cerebral artery occlusion. The nylon filament was allowed to stay in place to create a permanent model of focal cerebral ischemia. The day of modeling was defined as D1, the next day as D2, and so on. Since the experiment was not be completed in a single batch, and in order to prevent accidental errors, all operations in this experiment had to follow the principle of parallel operation, i.e., the experiment on each day needed to include animals from each group. Sequential numbering for surgical modeling was obtained by sorting the animals according to their body weight before the experiment. After the surgery, successfully modeled pMCAO rats were randomly assigned into a model group and various treatment groups. The detailed grouping of the experiment was as follows: (1) 15 rats in the 5 µg/Kg IRL1620 group with 9 administrations over 3 days; (2) 15 rats in the 6.6 µg/Kg BX225 group with 9 administrations over 3 days; (3) 15 rats in the 19.8 µg/Kg BX225 group with 3 administrations over 3 days; (4) 15 rats in the model (normal saline) group; and (5) 6 rats in the sham group (the sham group underwent the same procedure without vascular ligation and suture insertion). The administration was performed via tail vein injection (iv) with an administration volume of 2 mL/kg. The first administration was 2 hours after the surgery. Administration frequencies were single and multiple administrations per day according to the experimental design. Administrations were performed on D1, D3, and D6, respectively, as detailed in Table 22. The model group and the sham group were given the same volume of vehicle normal saline.

Setting [1] is: Day 21, 19.8 µg/Kg, 1Time regimen.
The mark [2] stands for this setting: Day 21, 3Time regimen: IRL1620 5 µg/Kg, BX225 6.6 µg/Kg.
[3] abbreviates: Day 30, 19.8 µg/Kg, 1Time regimen.
[4] abbreviates: Day 30, 3Time regimen: IRL1620 5 µg/Kg, BX225 6.6 µg/Kg.
Where [5] appears, read: pMCAO rats, 6.6 µg/Kg three-dose group, iv.

Here are results for seven molecules from patent EP4702986A1, “POLYPEPTIDE AND USE THEREOF” (Biocells (Beijing) Biotech Co., Ltd., priority 2023, dated 2024).

Numbered stars: 1 amine (or outer) side, 2 acyl side, 3 side chain; on linkers, the order of the positions; unused ones are H or OH. Side chains are listed from the residue outwards. Ends that are not written are not given here. Peptide text beside a SMILES is read from it. * marks the point of attachment. X1 = C[C@H](NC(=O)[C@@H]1CCCN1C(=O)[C@@H](N)CSC1CC(=O)N(CCC(=O)*)C1=O)C(=O)N[C@@H](CCCCN)C(=O)O; γGlu = O=C(O)[C@H](CCC(=O)[*:2])N[*:1]; Fumaroyl = O=C(O)/C=C/C(=O)*; Suc = O=C(CCC(=O)[*:2])[*:1]; Lauroyl = CCCCCCCCCCCC(=O)*; AEEA = NCCOCCOCC(=O)O

The EC50 is the midpoint of the concentration-response curve. For `CCCCCCCCCCCC(=O)N[C@@H](CCC(=O)NCCOCCOCC(=O)NCCCC[C@H](NC(=O)[C@H](Cc1c[nH]cn1)NC(=O)[C@H](C)NC(=O)[C@H](Cc1ccccc1)NC(=O)[C@H](Cc1ccc(O)cc1)NC(=O)[C@@H](NC(=O)[C@H](C)NC(=O)[C@H](CCC(=O)O)NC(=O)[C@H](CCC(=O)O)NC(=O)[C@H](CC(=O)O)NC(=O)/C=C/C(=O)O)C(C)C)C(=O)N[C@@H](CC(=O)O)C(=O)N[C@H](C(=O)N[C@H](C(=O)N[C@@H](Cc1c[nH]c2ccccc12)C(=O)O)[C@@H](C)CC)C(C)C)C(=O)O` [BX229-Na] (Fumaroyl-DEEAVYFAHK([AEEA-γGlu-Lauroyl])DVIW-OH), the EC50 on dog ETB receptor is 17.9 nM.
For `CCCCCCCCCCCC(=O)N[C@@H](CCC(=O)NCCOCCOCC(=O)NCCCC[C@H](NC(=O)[C@H](Cc1c[nH]cn1)NC(=O)[C@H](C)NC(=O)[C@H](Cc1ccccc1)NC(=O)[C@H](Cc1ccc(O)cc1)NC(=O)[C@@H](NC(=O)[C@H](C)NC(=O)[C@H](CCC(=O)O)NC(=O)[C@H](CCC(=O)O)NC(=O)[C@H](CC(=O)O)NC(=O)/C=C/C(=O)O)C(C)C)C(=O)N[C@@H](CC(=O)O)C(=O)N[C@H](C(=O)N[C@H](C(=O)N[C@@H](Cc1c[nH]c2ccccc12)C(=O)O)[C@@H](C)CC)[C@@H](C)CC)C(=O)O` [BX-225] (Fumaroyl-DEEAVYFAHK([AEEA-γGlu-Lauroyl])DIIW-OH), in the test on rat model of pMACO (setting [1]), the “5 min Spontaneous Activity” value is listed as 1.17±1.47, the “Beard Touch Reaction on Both Sides” value was 1.63±0.80, the “Body Symmetry” value was determined as 0.63±0.80 and the “Body Tactile Response on Both Sides” value is 1.60±0.77. For the same molecule, in the test with rat model of pMACO (setting [1]), the “Cage Climbing” value was found to be 1.69± 0.85, the “Forelimb Extension Movement” value is given as 0.80±1.01 and the “Total Score” value is reported as 7.51± 5.58. In the test with rat model of pMACO (setting [2]), the “5 min Spontaneous Activity” value is given as 2.89±0.33, the “Beard Touch Reaction on Both Sides” value amounted to 2.70±0.25, the “Body Symmetry” value was 1.74±0.48 and the “Body Tactile Response on Both Sides” value was determined as 2.50±0.23. In the test on rat model of pMACO (setting [2]), the “Cage Climbing” value worked out at 2.30± 0.71, the “Forelimb Extension Movement” value was found to be 1.87±0.52 and the “Total Score” value was found to be 13.99 ±1.49. In the test with rat model of pMACO (setting [3]), the “5 min Spontaneous Activity” value was determined as 1.25±1.54, the “Beard Touch Reaction on Both Sides” value came out at 1.50±0.65, the “Body Symmetry” value is 0.78±0.98 and the “Body Tactile Response on Both Sides” value amounted to 1.46±0.59. For the same molecule, in the test on rat model of pMACO (setting [3]), the “Cage Climbing” value is given as 1.79±0.98, the “Forelimb Extension Movement” value is given as 0.93+1.15 and the “Total Score” value stood at 7.71± 5.82. Besides, in the test on rat model of pMACO (setting [4]), the “5 min Spontaneous Activity” value was 3.00±0.00, the “Beard Touch Reaction on Both Sides” value stood at 2.39±0.13, the “Body Symmetry” value came out at 2.07±0.29 and the “Body Tactile Response on Both Sides” value was 2.29±0.18. In the test on rat model of pMACO (setting [4]), the “Cage Climbing” value is 2.81±0.15, the “Forelimb Extension Movement” value was found to be 2.25±0.23 and the “Total Score” value was found to be 14.81 ±0.56. Besides, in the test on rat model of pMACO (setting [5]), the “Garcia JH scores on days 21 and 30 compared with the normal saline group” value is reported as “statistical differences”; the “Garcia JH scores, course from day 7, day 14, day 21, to day 30” value is listed as “continuous improvement trend”.
“Suc-DE cyclo(CEEC)YFAHKDIIW (Suc-DECEECYFAHKDIIW; not fully specified (bridges); printed as Suc-DE cyclo(CEEC)YFAHKDIIW; also: cyclo(CEEC) in N-terminal extension, bond type not given here) [BX-57]”: the “DETAR Agonist Activity, %” value in the test with dog ETB receptor (@100nM) amounted to 49.81%.
Turning to “Fum-DEEEVYFAHKDIIW (Fumaroyl-DEEEVYFAHKDIIW) [BX-52]”, the entries for the “DETAR Agonist Activity, %” value in the test with dog ETB receptor (@10nM) and with dog ETB receptor (@100nM) were 76.82%@10 nM and 104.49%@1 00nM, respectively.
As to `CC[C@H](C)[C@H](NC(=O)[C@H](CC(=O)O)NC(=O)[C@H](CC(C)C)NC(=O)[C@H](Cc1c[nH]cn1)NC(=O)[C@H](C)NC(=O)[C@H](Cc1ccccc1)NC(=O)[C@H](Cc1ccc(O)cc1)NC(=O)[C@@H](NC(=O)[C@H](C)NC(=O)[C@H](CCC(=O)O)NC(=O)[C@H](CCC(=O)O)NC(=O)[C@H](CC(=O)O)NC(=O)CCC(=O)O)C(C)C)C(=O)N[C@H](C(=O)N[C@@H](Cc1c[nH]c2ccccc12)C(=O)O)[C@@H](C)CC` [IRL1620, reference compound] (Suc-DEEAVYFAHLDIIW-OH), in the test with rat model of pMACO (setting [2]), the “5 min Spontaneous Activity” value was 1.77±1.48, the “Beard Touch Reaction on Both Sides” value was 1.95±0.82, the “Body Symmetry” value came out at 0.90±0.80 and the “Body Tactile Response on Both Sides” value turned out to be 1.79±0.70. Besides, in the test on rat model of pMACO (setting [2]), the “Cage Climbing” value stood at 2.03± 0.86, the “Forelimb Extension Movement” value was 1.26±1.05 and the “Total Score” value is reported as 9.70± 5.58.
Consider `CC[C@H](C)[C@H](NC(=O)[C@H](CC(=O)O)NC(=O)[C@H](CCCCNC(=O)COCCOCCNC(=O)CCN1C(=O)CC(SC[C@H](N)C(=O)N2CCC[C@H]2C(=O)N[C@@H](C)C(=O)N[C@@H](CCCCN)C(=O)O)C1=O)NC(=O)[C@H](Cc1c[nH]cn1)NC(=O)[C@H](C)NC(=O)[C@H](Cc1ccccc1)NC(=O)[C@H](Cc1ccc(O)cc1)NC(=O)[C@@H](NC(=O)[C@H](C)NC(=O)[C@H](CCC(=O)O)NC(=O)[C@H](CCC(=O)O)NC(=O)[C@H](CC(=O)O)NC(=O)/C=C/C(=O)O)C(C)C)C(=O)N[C@H](C(=O)N[C@@H](Cc1c[nH]c2ccccc12)C(=O)O)[C@@H](C)CC` (some centres unmarked) [BX-95] (Fumaroyl-DEEAVYFAHK([AEEA-X1])DIIW-OH), for which the EC50 on dog ETB receptor came to 69.1 nM.
As for Fum-DEEEVYFAHOrnDIIW [BX-59], the “DETAR Agonist Activity, %” value on dog ETB receptor (@10nM) was 14.7%@10n M; at dog ETB receptor (@100nM), 117.46%@1 00nM.
